What all share (assay type): physicochemical
The nature of series [1]: Evaluation of hygroscopicity (equilibrium moisture measurement). The following applies: for Weight increase: humidification with an increase in relative humidity from 5% to 65%; for Weight increase / Change in appearance: 30° C.; for Change in appearance: humidification. As to the method:
Equilibrium moisture measurement was performed on Form A crystal and the amorphous matter of compound (I) under the following conditions using a fully automated symmetric vapor sorption analyzer (TA Instruments Inc.; VTI-SA+). […] The change in appearance was also observed.

Series [2] in a line: Evaluation of solubility in Japanese Pharmacopoeia test fluids. The settings on record: thermodynamic from solid. As to the method: Form A crystal of compound (I) (100 mg) was weighed into a borosilicate glass vial, and the 1st fluid for disintegration test/1st fluid for dissolution test of the Japanese Pharmacopoeia 16th edition (pH 1.2)(1 mL) or the 2nd fluid for disintegration test of the Japanese Pharmacopoeia 16th edition (pH 6.8)(1 mL) was added in a temperature and humidity test chamber (Amefrec Co., Ltd.; NO DOORα) adjusted to 37° C., followed by stirring. Form B crystal of ethane disulfonate of compound (I) (10 mg) was weighed into a borosilicate glass vial, and the 2nd fluid for disintegration test of the Japanese Pharmacopoeia 16th edition (pH 6.8) (0.1 mL) was added in a temperature and humidity test chamber (Amefrec Co., Ltd.; NO DOORα) adjusted to 37° C., followed by stirring. After 30 minutes, the inside of each vial was visually checked, and it was confirmed that each crystal was completely dissolved.

A short description of series [3]: Evaluation of storage stability, Form A crystal versus amorphous matter (HPLC purity). The settings on record: for Chemical purity, After storage / Decomposition product increased by not less than 0.15% after storage / Optical purity, After storage: airtight state, listed as Form A.
Setting [4] is: listed as Form A crystal of compound (I).
[5] abbreviates: 40° C., relative humidity 75%, 8 weeks.

Read-outs that look alike come from different tables or passages of the source.

Turning to `CN(C)C1CCN(C(=O)C[C@H](O)c2nccn2C)CC1` [Form A crystal, (S)-1-(4-(dimethylamino)piperidin-1-yl)-3-hydroxy-3-(1-methyl-1H-imidazol-2-yl)propan-1-one], in series [1], the Weight increase stood at 0.1% and the Change in appearance entry was “Maintenance of white powder”. For the same compound, in series [1] (setting [4]), the Weight increase result is reported as “did not experience an increase in weight” and the Change in appearance result was “did not deliquesce”. Besides, the “change in the crystal form after the hygroscopicity evaluation test” value in series [1] (powder X-ray diffraction after humidification) is recorded as “did not experience a change in the crystal form”. Further, the solubility at 30 min in series [2] (Japanese Pharmacopoeia test fluids, text summary of Table 5, 37° C., read-out: solubilities) was no less than 100 mg/mL. Besides, the solubility at 30 min in series [2] (simulated gastric fluid, 1st fluid for disintegration test/1st fluid for dissolution test of the Japanese Pharmacopoeia 16th edition (pH 1.2), 37° C., 30 minutes, read-out: Solubility (37° C.)) was greater than 100 mg/mL. Further, in series [3] (setting [5]), the “Chemical purity, After storage” value came to 99.9%; the “Decomposition product increased by not less than 0.15% after storage” value is “None”; the “Optical purity, After storage” value was 98.8 % ee. For the same compound, in series [3] (60° C., 4 weeks), the “Chemical purity, After storage” value is 99.8%; the “Decomposition product increased by not less than 0.15% after storage” value is given as “None”; the “Optical purity, After storage” value came out at 98.8 % ee. For the same compound, in series [3] (before storage), the “Chemical purity, Initial value” turned out to be 99.9% and the “Optical purity, Initial value” is reported as 98.6 % ee.
